From article PMC10252837, “A Novel Time-Resolved Fluorescence Resonance Energy Transfer Assay for the Discovery of Small-Molecule Inhibitors of HIV-1 Tat-Regulated Transcription” (International Journal of Molecular Sciences, 2023)
“Also recorded” adds a separate entry of the source.

Tests used:
[1] = tested on: HIV-1NL4-3 (X4-tropic); test: HIV-1 replication assay in PBMCs (p24), HIV-1NL4-3; assay type: cell-based; conditions: PHA-preactivated PBMCs, MOI 0.1, 72 h; 460-G06 at 12.5-100 nM
Method: (§1) Figure 6 Phytohemagglutinin-preactivated peripheral blood mononuclear cells were infected with HIV-1NL4-3 (A) or HIV-1AD8 (B) at an MOI of 0.1 for 2 h and then treated with compounds at indicated concentrations for 72 h. […] The data are expressed as the mean ± SD (n = 3). * p < 0.05 indicates a comparison with the cells treated with DMSO (vehicle). ARVs, anti-retroviral drugs; EFV, efavirenz; DOL, dolutegravir; AZT, azidothymidine.
(§2) The experiments were performed in triplicate.

[2] = molecular target: TAR RNA; test: RNA gel mobility shift assay (biotinylated TAR RNA and ARM peptide); assay type: binding, HIV-1; conditions: 2 nM biotinylated TAR RNA, 100 nM ARM peptide
Method: To determine the inhibitory effect of hit compounds on the Tat (ARM)-TAR RNA interaction, a gel shift assay was carried out using the LightShift Chemiluminescent RNA EMSA Kit (Thermo Scientific) according to the manufacturer’s instructions, but with minor modifications suitable for our experiment. Briefly, 2 nM of 5′-biotinylated TAR RNA (nt 31) and 100 nM of ARM peptide were incubated with increasing amounts of hit compounds in the 1× REMSA binding buffer (10 mM HEPES pH 7.5, 10 mM MgCl2, 5 mM KCl, 1 mM DTT, and v/v 5 % glycerol) supplemented with 8 units/reaction of RNase OUT (Invitrogen) (final: 20 µL) at 20 °C for 20 min. Subsequently, the reaction was separated on a 3–12% native gradient PAGE gel. The RNA was then transferred to a nylon membrane to detect the mobility-shifted biotinylated TAR RNA using StAV-horseradish peroxidase conjugate. Chemiluminescence was detected using a GBox Chemi chemi-luminometer (Syngene, Fredrick, MD, USA).

[3] = tested on: HIV-1AD8 (R5-tropic); test: HIV-1 replication assay in PBMCs (p24), HIV-1AD8; assay type: cell-based; conditions: PHA-preactivated PBMCs, MOI 0.1, 72 h; 460-G06 at 12.5-100 nM
Method: as §1, §2

[4] = in vitro; conditions: human
Method: (§3) (A) (Upper panel) Doxycycline (Dox)-inducible Tat-expressing bl-DTR cells cultured in 96-well plates treated with two-fold serial dilutions of each compound in the presence of Dox (50 ng/mL). At 24 h after treatment, the activity of firefly luciferase (F-Luc), indicating Tat activity, was determined as described in the Materials and Methods section. (Bottom panel) TZM-bl cells were treated with two-fold serial dilutions of the indicated compound and then infected with the HIV-1NL4-3 strain at a multiplicity of infection (MOI) of 1. At 24 h after infection, the viral infectivity and cell viability were determined as described in the Materials and Methods section. […] (B) 2 × 10^5 TZM-bl cells growing in 6-well plates were infected with HIV-1 (MOI = 1), transfected with a Tat-expressing plasmid (2 μg) or treated with PMA ([…]) upon indicated compounds at indicated concentrations, respectively. At 24 h after treatment, LTR promoter activity was determined via a Bright-Glo Luciferase Assay Kit. The relative activities are represented as the mean ± SD (n = 3) compared with the DMSO vesicle. (C) The biotinylated TAR RNA (2 nM) was incubated with ARM peptide (100 nM) in the presence of increasing amounts of the hit compound and separated on a 3–12% native polyacrylamide gel. The mobility of biotinylated TAR RNA was detected by chemiluminescence.
(§4) To determine the inhibitory effect of hit compounds on HIV-1 infection, we used TZM-bl cells (also referred to as JC53BL-13), which express HIV-1 receptors and contain the LTR-driven F-Luc gene controlled by HIV-1 infection, as described previously but with some minor modifications. Briefly, 1 × 10^4 TZM-bl cells cultured on 96-well plates were treated in triplicate wells with 1:2 serially diluted compounds at concentrations ranging from 0 to 12.5 µM. […] At 24 h after infection, the inhibitory effect of the hit compounds on infectivity was determined using the Bright-Glo Luciferase Assay Kit (Promega). The dose–response data are expressed as a relative percentage compared to the DMSO control (vehicle). The inhibitory effects of the hit compounds on HIV-1 replication were determined as previously described. […] After infection, the cells were treated with hit compounds at the indicated concentrations at 3–5 days after treatment, and the inhibitory effect of hit compounds on viral replication was determined by the titration of virions from the cell supernatant using a p24 […]™ Assay Kit (PerkinElmer) according to the manufacturer’s instructions. Cell viability was determined using resazurin-based PrestoBlue™ cell viability reagent (Thermo Fisher Scientific, Waltham, MA, USA) according to the manufacturer’s instructions. […]

[5] = tested on: TZM-bl cells; test: in vitro; conditions: human, 24 h
Method: as §3, §4

[6] = tested on: peripheral blood mononuclear cells; test: Cell viability in PBMCs (PrestoBlue); assay type: cell-based; conditions: primary PBMCs, 72 h
Method: as §1, §2

[7] = tested on: HIV-1NL4-3; test: HIV-1 infectivity in TZM-bl cells (LTR-driven F-Luc); assay type: cell-based; conditions: Human immunodeficiency virus 1, TZM-bl, 24 h, read-out: IC50 of Infectivity
Method: as §3
To determine the inhibitory effect of hit compounds on HIV-1 infection, we used TZM-bl cells (also referred to as JC53BL-13), which express HIV-1 receptors and contain the LTR-driven F-Luc gene controlled by HIV-1 infection, as described previously but with some minor modifications. Briefly, 1 × 10^4 TZM-bl cells cultured on 96-well plates were treated in triplicate wells with 1:2 serially diluted compounds at concentrations ranging from 0 to 12.5 µM. Subsequently, the cells were infected with HIV-1NL4-3 virus obtained from the transfection of 293T cells at a multiplicity of infection (MOI) of 1. At 24 h after infection, the inhibitory effect of the hit compounds on infectivity was determined using the Bright-Glo Luciferase Assay Kit (Promega). The dose–response data are expressed as a relative percentage compared to the DMSO control (vehicle). The inhibitory effects of the hit compounds on HIV-1 replication were determined as previously described. Briefly, 4 × 10^5 PBMCs pre-activated with phytohemagglutinin M (PHA-M) were washed with fresh media and then infected with HIV-1NL4-3 or HIV-1AD8 at an MOI of 0.1 by spinoculation for 2 h. After infection, the cells were treated with hit compounds at the indicated concentrations at 3–5 days after treatment, and the inhibitory effect of hit compounds on viral replication was determined by the titration of virions from the cell supernatant using a p24 […]™ Assay Kit (PerkinElmer) according to the manufacturer’s instructions. Cell viability was determined using resazurin-based PrestoBlue™ cell viability reagent (Thermo Fisher Scientific, Waltham, MA, USA) according to the manufacturer’s instructions. The data are presented as relative percentages compared to the DMSO control (vehicle). The experiments were performed in triplicate.

[8] = tested on: Tat activity (Tat-induced viral transcription); test: microbe, parasite or virus in culture; assay type: cell-based, HIV-1
Method: as §3
The inhibitory effect of hit compounds on Tat-mediated transcription was determined using doxycycline (Dox)-inducible Tat-expressing TZM-bl cells that express the LTR-driven firefly luciferase (F-Luc) gene under the control of Tat upon Dox treatment, as described previously but with minor modifications. In brief, 1 × 10^4 of the cells were cultured in 96-well plates, treated with compounds at a concentration of 10 µM (in the second round of screening), and then treated with Dox (final concentration: 50 ng/mL). After 24 h, the inhibitory effect of the hit compounds on Tat activity was determined by measuring F-Luc activity using a Bright-Glo Luciferase Assay Kit (Promega, Madison, WI, USA). For the dose–response assay, cells cultured in 100 μL medium were treated with 50 μL of 1:2 serially diluted compounds at concentrations ranging from 0 to 12.5 µM and then treated with 50 μL of Dox (final concentration: 50 ng/mL). At 24 h post-treatment, the F-Luc activity was determined as described above. All luminescence assays were carried out in a SpectraMax Paradigm Microplate Reader (Molecular Devices, San Jose, CA, USA), and the data were expressed as a relative percentage (%) compared to the DMSO control (vehicle) in the presence of Dox. The experiments were performed in triplicate.

## CN1C/C=C/CCOc2cccc(c2)-c2ccnc(n2)Nc2cccc(c2)C1 [Hit 460-G06, (E)-6-methyl-12-oxa-3,6-diaza-2(4,2)-pyrimidine-1,4(1,3)-dibenzenacyclododecaphan-8-ene]
[1]
  inhibition of viral replication, in words: inhibited viral replication in a dose-dependent manner
[2]
  Kd: 132000 nM
  dissociation of ARM from TAR RNA, in words: directly bound to the TAR RNA and efficiently dissociated the ARM from TAR RNA
[3]
  inhibition of viral replication, in words: inhibited viral replication in a dose-dependent manner
[4]
  CC50 at 24 h: 4940 ± 440 nM
[5]
  concentration at which cytotoxicity is indicated: over 0.1 μM
[6]
  cell viability / cytotoxicity in PBMCs, in words: without a severe decrease in cell viability; also recorded: such cytotoxicity was not observed
[7]
  IC50: 13 ± 3 nM
[8]; 0-12.5 μM, bl-DTR cells
  dose response of Tat activity (F-Luc), in words: gradual inhibition of F-Luc activity
[8]; Human immunodeficiency virus 1, 24 h, read-out: IC50 of Tat Activity
  IC50: 11 ± 1 nM
